Experimental findings from PubChem BioAssay (NCI) are described below.

Assay in all cases: NCI tumour cell line growth inhibition, 48 h
Assay [1] concerns SK-MEL-5 melanoma.
Assay [2] relates to NCI-H460 lung.
Assay [3] deals with A549 NSCLC.
Assay [4] concerns KM12 colon.
In assay [5] the test system is K-562 leukemia.
Assay [6] has as its system CAKI-1 renal.
The subject of assay [7] is SNB-19 CNS.
Assay [8] relates to LOX IMVI melanoma.
The subject of assay [9] is T-47D breast.
Assay [10] relates to MCF7 breast.

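Five compound concentrations were applied to cells in 96-well plates for 48 hours; endpoints were derived by simple linear interpolation of the resulting dose-response curve. GI50 is the concentration that inhibits growth by half. TGI marks complete inhibition of growth.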

`CSc1ccc2c(cc1=O)[C@@H](NC(=O)c1ccc(Cl)cc1)CCc1cc(O)c(O)c(O)c1-2`: the TGI in assay [1] was > 100 µM; in assay [2], > 100 µM; in assay [3], > 100 µM; in assay [4], > 100 µM; in [5] it was 68.3 µM; in assay [6] it was > 100 µM. Besides, the TGI in assay [7] is > 100 µM; in assay [8] it was 33.6 µM.

Turning to `CCOC(=O)C(CCC(N)=O)(CCC(=O)OC)C(=O)OCC`, the TGI in assay [2], in [3], in assay [4], in assay [5], in assay [6] and in assay [7] was > 100 µM throughout. Besides, the TGI in assay [8] is > 100 µM.

In the case of `COC(=O)c1ncc2c(=O)[nH]c3ccccc3c2c1C(=O)OC`, the TGI in [1] is > 100 µM; in assay [2], 47.3 µM; in [3], > 100 µM; in [4] it was > 100 µM; in assay [5], > 100 µM; in [6], > 100 µM. The TGI in assay [7] and in assay [8] was > 100 µM in each case.

As for `N#CCC(=O)N/N=C1/C(=O)N(c2cc(Cl)ccc2Cl)C(=O)C(=O)C1c1nc2ccccc2s1` (configuration not stated), the TGI in assay [1] is > 100 µM; in assay [2], > 100 µM; in assay [3] it was > 100 µM; in assay [4], > 100 µM; in [5], > 100 µM; in assay [6], 94.4 µM. For the same compound, the TGI in assay [7] and in assay [8] was > 100 µM throughout.

Take `COc1cc(CNCCN2C(=O)c3ccc4c5c(ccc(c35)C2=O)C(=O)N(CCNCc2cc(OC)c(OC)c(OC)c2)C4=O)cc(OC)c1OC`: the GI50 is 189 nM in [9]; 147 nM in assay [5]; 827 nM in assay [7]; 262 nM in assay [10]; 142 nM in assay [8]. The TGI came to 0.718 µM in [9]; 0.413 µM in assay [5]; 1.84 µM in [7]; 1.05 µM in assay [10]; 0.421 µM in assay [8].

On to `COC(=O)[C@@]1(C)C(=O)CC[C@@H]1C=O`, for which the TGI in assay [1], in [2], in assay [3], in assay [4], in assay [5] and in assay [6] was > 100 µM in each case. Besides, the TGI in assay [7] and in assay [8] was > 100 µM in each case.

For the compound `COc1cccc(-c2cc(=O)c3cc(N4CCOCC4)ccc3[nH]2)c1`, the GI50 in [1] is 31.9 nM; in assay [2], 272 nM; in assay [3], 225 nM; in assay [4] it was 24.3 nM; in assay [5], 26.7 nM; in assay [10], 27.5 nM. For the same compound, the GI50 in assay [8] was 26.1 nM. In addition, the TGI is > 100 µM in [2]; > 100 µM in [3]; 0.179 µM in [5]; > 100 µM in assay [6]; 20.1 µM in [10].

`CCOc1cn(C2OC(CO)C(O)C2O)c(=O)[nH]c1=O` (configuration not stated): the TGI in assay [1], in [2], in assay [3], in assay [4], in assay [5] and in assay [6] was > 100 µM in each case. The TGI in assay [7] and in [8] was > 100 µM throughout.

On to `CC1=NN(C(=O)Nc2ccc(Cl)cc2)C(=O)C2CCC(=O)N12` (configuration not stated), for which the TGI in [1], in [2], in assay [3], in [4], in assay [5] and in [6] was > 100 µM in each case. Also, the TGI in assay [7] and in assay [8] was > 100 µM throughout.

Regarding `O=C(CCc1ccccc1)NS(=O)(=O)c1ccccc1`, the TGI in assay [2], in assay [3], in [4], in [5], in assay [6] and in [7] was > 100 µM throughout. The TGI in [8] was > 100 µM.

Consider `COc1ccc(CCN(CC(=O)N(CC(N)=O)C2CCC[C@@H]2OCc2ccccc2)C(=O)CN(C(=O)CN(CCc2ccc(Cl)cc2)C(=O)CN(C(=O)CN(C)Cc2ccccc2F)[C@H](C)C2CCCCC2)[C@H](C)C2CCCCC2)cc1OC` (some centres not stated), for which the GI50 is 1430 nM in [9]; 1700 nM in [1]; 1940 nM in assay [2]; 1590 nM in assay [3]; 1580 nM in assay [4]; 1610 nM in assay [5]. Further, the GI50 in assay [7] was 1640 nM; in [10], 1170 nM; in [8], 1080 nM. The TGI was > 50 µM in assay [9]; 8.62 µM in assay [1]; > 50 µM in [2]; > 50 µM in [3]; > 50 µM in assay [4]; > 50 µM in assay [5]. The figures for the TGI in assay [7], in [10] and in [8] were > 50 µM, > 50 µM and 2.77 µM, respectively.

As to `CCOC(=O)C1=C(C)NC2=C(C(=O)N(c3ccccc3)C2c2ccccc2)C1c1ccccc1` (configuration not stated), the TGI in [1] is 28.6 µM; in assay [3] it was 44.2 µM; in [4], 33.7 µM; in [5], > 100 µM; in assay [6], 31.6 µM; in assay [8] it was 34.4 µM.

Take `COc1ccc(C2ON(c3ccccc3)CC=C2C)cc1` (configuration not stated): the TGI in assay [2], in assay [3], in assay [4], in assay [5], in [6] and in [7] was > 100 µM throughout. The TGI in assay [8] was > 100 µM.

Take `C[C@@H](NS(=O)(=O)c1ccc(NC(=O)c2ccccc2)cc1)C(=O)O`: the TGI in [1], in assay [2], in assay [3], in [4], in [5] and in assay [6] was > 100 µM in each case. Also, the TGI in [7] and in assay [8] was > 100 µM throughout.

For `CC(C)(C)c1cc(CCCCCCCC2(CCCCCCCc3cc(C(C)(C)C)cc(C(C)(C)C)c3)OC(COCCOCCCCCC#N)C(COCCOCCCCCC#N)O2)cc(C(C)(C)C)c1` (configuration not stated), the TGI in assay [1], in assay [2], in assay [3], in assay [4], in assay [5] and in [6] was > 100 µM throughout. Also, the TGI in assay [7] and in [8] was > 100 µM each time.

Regarding `Cc1ccc(NC(=O)CC/C(CC(=O)C(C)(C)C)=N\NC(=O)C[n+]2ccccc2)cc1C`, the TGI in assay [1], in [2], in assay [3], in assay [4], in [5] and in assay [6] was > 100 µM throughout. In addition, the TGI in assay [7] and in assay [8] was > 100 µM each time.

Turning to `CC(=O)CC/C=C(\C)[C@H](O)[C@H](C)C(=O)O[C@H]1C[C@H](C)C=C2C=C[C@@]3(C)O[C@@H](O)CC(=O)[C@]3(C)[C@H]21`, the GI50 in assay [9] is 309 nM; in [1], 598 nM; in [2] it was 379 nM; in assay [3], 1240 nM; in assay [4] it was 308 nM; in assay [7] it was 331 nM. In addition, the GI50 in assay [10] is 500 nM; in [8], 279 nM. The TGI in [9] amounted to 2.54 µM; in assay [1], 2.08 µM; in [2], 7.38 µM; in assay [3] it was 9.17 µM; in assay [4] it was 2.54 µM; in [7], 2.49 µM. The values for the TGI in assay [10] and in [8] were 6.19 µM and 1.69 µM, respectively.

For the compound `C=CC(=O)NC(N)=NC#N`, the TGI was 301 µM in [1]; 360 µM in [2]; 345 µM in [3]; 445 µM in [5]; 361 µM in assay [6]; 523 µM in [7]. The TGI in assay [8] came out at 273 µM. Moreover, the GI50 is 136000 nM in assay [5], 171 µM in assay [6] and 129000 nM in [8].

On to `O=C(/C=C/c1ccccc1O)c1ccc([N+](=O)[O-])cc1`, for which the TGI was 49.8 µM in [1]; 50.5 µM in [2]; 48.9 µM in assay [3]; 40.4 µM in assay [4]; 71.6 µM in [5]; 39.1 µM in [6]. The results for the TGI in assay [7] and in [8] were 35.8 µM and 33.4 µM, respectively.

`CC(=O)O[C@H]1CCN2C(=O)C=CC(OCc3ccccc3)C12` (some centres not stated): the TGI in assay [1], in assay [2], in assay [3], in [4], in assay [5] and in assay [6] was > 100 µM each time. Besides, in assay [8], the TGI is > 100 µM.

With `OCC[N+]12CCCN1CCC2`, the TGI in assay [1], in assay [2], in assay [3], in assay [4], in assay [5] and in [6] was > 100 µM each time. Further, the TGI in assay [7] and in [8] was > 100 µM in each case.

For `COc1cc2oc(-c3ccccc3)cc(=O)c2c(O)c1C`, the TGI in assay [1], in assay [2], in assay [3], in [4], in [5] and in assay [6] was > 100 µM throughout. The TGI in assay [8] was > 100 µM.

As for `COc1ccc(NC2=C(I)C(=O)c3ncccc3C2=O)cc1`, the GI50 in assay [9] is 1590 nM; in assay [1], 347 nM; in assay [2], 647 nM; in assay [3], 1840 nM; in assay [4], 1680 nM; in [5], 533 nM. For the same compound, the results for the GI50 in assay [6], in [7] and in assay [8] were 1.21 µM, 1180 nM and 309 nM, respectively. The TGI in assay [9] turned out to be 4.17 µM; in [1], 1.42 µM; in [2] it was 2.24 µM; in assay [3] it was 3.91 µM; in assay [4] it was 3.77 µM; in assay [5], 5.19 µM. In addition, the TGI in [6] amounted to 2.62 µM; in [7] it was 3.29 µM; in assay [8] it was 1.57 µM.

Regarding `COC(=O)c1ccc(/C=C(\c2ccc([N+](=O)[O-])o2)S(=O)(=O)c2ccc(NC(C)=O)cc2)o1`, the TGI in [9] was > 100 µM; in [1], 13.5 µM; in [2], 53.9 µM; in [3], 34.1 µM; in assay [4] it was 27.8 µM; in assay [5], 18.1 µM. Also, the values for the TGI in assay [6], in assay [7] and in assay [10] were 29.4 µM, 32.2 µM and 29.3 µM, respectively.

Take `Cc1ccc2cccc(OC(=O)Nc3cccc(C(F)(F)F)c3)c2n1`: the GI50 in assay [9] is 3050 nM; in assay [1], 7410 nM; in [2] it was 2840 nM; in assay [3], 3440 nM; in assay [4], 3190 nM; in [5], 3630 nM. The results for the GI50 in assay [6], in assay [7] and in assay [10] were 3.25 µM, 2890 nM and 2260 nM, respectively. Also, the TGI amounted to 13.4 µM in assay [9]; 20.1 µM in [1]; 7.8 µM in assay [2]; 13.4 µM in [3]; 10.9 µM in assay [4]; 17.8 µM in assay [5]. Moreover, the TGI in [6] was 11.8 µM; in assay [7], 12.5 µM; in assay [10], 8.05 µM.

In the case of `CCn1c2ccccc2c(=O)c2c(OC)ccc(OC)c21`, the TGI in assay [2], in assay [3], in assay [4], in assay [5], in [6] and in assay [7] was > 100 µM throughout. Besides, the TGI in [8] is > 100 µM.
